Literature values, collected in patent US7238375B1, “Composition and method to promote human hair growth” (priority 2004, dated 2007).

What was measured:
sheep = conditions: supplement in the diet of sheep
Type 1 5-alpha-reductase = molecular target: T1, Type 1 5-alpha-reductase (Homo sapiens, UniProt P18405); conditions: application of copper ion to skin
T1 sequence (P18405 1-259): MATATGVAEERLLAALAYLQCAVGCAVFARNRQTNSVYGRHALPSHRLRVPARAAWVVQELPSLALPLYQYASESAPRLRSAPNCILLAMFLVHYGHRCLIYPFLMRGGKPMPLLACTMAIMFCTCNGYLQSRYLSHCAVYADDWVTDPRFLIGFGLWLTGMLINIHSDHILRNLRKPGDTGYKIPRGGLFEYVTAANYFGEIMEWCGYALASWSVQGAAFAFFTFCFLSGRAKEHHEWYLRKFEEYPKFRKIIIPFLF

Type 2 5-alpha-reductase = molecular target: T2, Type 2 5-alpha-reductase (Homo sapiens, UniProt P31213); conditions: application of copper ion to skin
T2 sequence (P31213 1-254): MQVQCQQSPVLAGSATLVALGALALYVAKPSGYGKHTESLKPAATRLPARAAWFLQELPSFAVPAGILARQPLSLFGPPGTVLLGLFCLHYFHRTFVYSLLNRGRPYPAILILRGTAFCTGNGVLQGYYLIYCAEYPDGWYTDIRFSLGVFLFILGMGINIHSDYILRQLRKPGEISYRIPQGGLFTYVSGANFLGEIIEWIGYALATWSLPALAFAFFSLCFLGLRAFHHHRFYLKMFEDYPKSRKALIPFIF

N[C@@H](CS)C(=O)O [Cysteine]
effect on hair shafts (rats): thicker hair shafts | effect on wool growth patterns (sheep): significant modification in wool growth patterns

[Cu+2] [Copper ion]
concentration giving 50% reduction in activity of Type 1 5-alpha-reductase (Type 1 5-alpha-reductase): 0.12 micrograms copper ion per milliliter | IC50 (Type 1 5-alpha-reductase; read-out: concentration giving 50% reduction in activity of Type 1 5-alpha-reductase): 1.9 µM | concentration giving 50% reduction in activity of Type 2 5-alpha-reductase (Type 2 5-alpha-reductase): 1.2 micrograms copper ion per milliliter | IC50 (Type 2 5-alpha-reductase; read-out: concentration giving 50% reduction in activity of Type 2 5-alpha-reductase): 10.2 µM
